Data published in ChEMBL document CHEMBL3044631, “Synthesis of 2-[4,5-dimethyl-1-(phenylamino)-1H-imidazol-2-ylthio]-N-(thiazole-2-yl)acetamide derivatives and their anticancer activities” (2013).

Key:
Assay type in all cases: functional
SF-268 = assay: Anticancer activity against Homo sapiens (human) SF268 cells after 48 hr by SRB assay; details: SF-268, 48 h
SF-295 = assay: Anticancer activity against Homo sapiens (human) SF295 cells after 48 hr by SRB assay; details: SF-295, 48 h
HT-29 = assay: Anticancer activity against Homo sapiens (human) HT-29 cells after 48 hr by SRB assay; details: HT-29, 48 h
HCT-15 = assay: Anticancer activity against Homo sapiens (human) HCT15 cells after 48 hr by SRB assay; details: HCT-15, 48 h
COLO 205 = assay: Anticancer activity against Homo sapiens (human) COLO205 cells after 48 hr by SRB assay; details: COLO 205, 48 h
NCI-H522 = assay: Anticancer activity against Homo sapiens (human) NCI-H522 cells after 48 hr by SRB assay; details: NCI-H522, 48 h
NCI-H23 = assay: Anticancer activity against Homo sapiens (human) NCI-H23 cells after 48 hr by SRB assay; details: NCI-H23, 48 h
EKVX = assay: Anticancer activity against Homo sapiens (human) EKVX cells after 48 hr by SRB assay
HOP-62 = assay: Anticancer activity against Homo sapiens (human) HOP62 cells after 48 hr by SRB assay; details: HOP-62, 48 h
A549 = assay: Anticancer activity against Homo sapiens (human) A549/ATCC cells after 48 hr by SRB assay; details: A549, 48 h
MOLT-4 = assay: Anticancer activity against Homo sapiens (human) MOLT4 cells after 48 hr by SRB assay; details: MOLT-4, 48 h
K562 = assay: Anticancer activity against Homo sapiens (human) K562 cells after 48 hr by SRB assay; details: K562, 48 h
HL-60(TB) = assay: Anticancer activity against Homo sapiens (human) HL-60(TB) cells after 48 hr by SRB assay; details: HL-60, 48 h
CCRF-CEM = assay: Anticancer activity against Homo sapiens (human) CCRF-CEM cells assessed as cell growth promotion at 10 uM after 48 hr by SRB assay
NCI-H460 = assay: Anticancer activity against Homo sapiens (human) NCI-H460 cells after 48 hr by SRB assay; details: NCI-H460, 48 h
BT-549 = assay: Anticancer activity against Homo sapiens (human) BT549 cells after 48 hr by SRB assay; details: BT-549, 48 h
DU-145 = assay: Anticancer activity against Homo sapiens (human) DU145 cells after 48 hr by SRB assay; details: DU-145, 48 h
NCI/ADR-RES = assay: Anticancer activity against Homo sapiens (human) NCI/ADR-RES cells after 48 hr by SRB assay
OVCAR-8 = assay: Anticancer activity against Homo sapiens (human) OVCAR8 cells after 48 hr by SRB assay; details: OVCAR-8, 48 h
OVCAR-5 = assay: Anticancer activity against Homo sapiens (human) OVCAR5 cells after 48 hr by SRB assay; details: OVCAR-5, 48 h
OVCAR-3 = assay: Anticancer activity against Homo sapiens (human) OVCAR3 cells after 48 hr by SRB assay; details: OVCAR-3, 48 h
IGROV-1 = assay: Anticancer activity against Homo sapiens (human) IGROV1 cells after 48 hr by SRB assay; details: IGROV-1, 48 h
UACC-62 = assay: Anticancer activity against Homo sapiens (human) UACC62 cells after 48 hr by SRB assay; details: UACC-62, 48 h
SK-MEL-5 = assay: Anticancer activity against Homo sapiens (human) SK-MEL-5 cells after 48 hr by SRB assay; details: SK-MEL-5, 48 h
MDA-MB-435 = assay: Anticancer activity against Homo sapiens (human) MDA-MB-435 cells after 48 hr by SRB assay; details: MDA-MB-435, 48 h
LOX IMVI = assay: Anticancer activity against Homo sapiens (human) LOXIMVI cells after 48 hr by SRB assay
Malme-3M = assay: Anticancer activity against Homo sapiens (human) MALME-3M cells after 48 hr by SRB assay
SNB-19 = assay: Anticancer activity against Homo sapiens (human) SNB19 cells after 48 hr by SRB assay; details: SNB-19, 48 h
UO-31 = assay: Anticancer activity against Homo sapiens (human) UO31 cells after 48 hr by SRB assay; details: UO-31, 48 h
ACHN = assay: Anticancer activity against Homo sapiens (human) ACHN cells after 48 hr by SRB assay
A498 = assay: Anticancer activity against Homo sapiens (human) A498 cells after 48 hr by SRB assay; details: A498, 48 h
[1] = read-out: LC50 (the source's name)

Which results are given for `Cc1ccc(Nn2c(SCC(=O)Nc3nc(-c4ccccc4)cs3)nc(C)c2C)cc1`?
GI50 (SF-268): 9.1 µM; LC50 (SF-268): > 100 µM; TGI (SF-268): > 100 µM; GI50 (SF-295): 1.06 µM; LC50 (SF-295): > 100 µM; TGI (SF-295): 5.89 µM; GI50 (HT-29): 4.37 µM; LC50 (HT-29): > 100 µM; TGI (HT-29): 28.2 µM; GI50 (HCT-15): 5.17 µM; TGI (HCT-15): > 100 µM; CC50 (HCT-15; [1]): > 100 µM; GI50 (COLO 205): 3.98 µM; TGI (COLO 205): 34.4 µM; CC50 (COLO 205; [1]): > 100 µM; GI50 (NCI-H522): 2.97 µM; LC50 (50% lethal concentration) (NCI-H522): > 100 µM; TGI (NCI-H522): 86.8 µM; GI50 (NCI-H23): 3.42 µM; TGI (NCI-H23): > 100 µM; CC50 (NCI-H23; [1]): > 100 µM; GI50 (EKVX): 1.39 µM; TGI (EKVX): 5.61 µM; CC50 (EKVX; [1]): > 100 µM; GI50 (HOP-62): 18.4 µM; LC50 (HOP-62): > 100 µM; GI50 (A549): 3.03 µM; LC50 (A549): > 100 µM; TGI (A549): > 100 µM; GI50 (MOLT-4): 3.46 µM; LC50 (50% lethal concentration) (MOLT-4): > 100 µM; TGI (MOLT-4): > 100 µM; GI50 (K562): 3.62 µM; TGI (K562): > 100 µM; CC50 (K562; [1]): > 100 µM; GI50 (HL-60(TB)): 4.64 µM; TGI (HL-60(TB)): 39.1 µM; CC50 (HL-60(TB); [1]): > 100 µM; Activity (CCRF-CEM): 57.71%; GI50 (NCI-H460): 3.88 µM; LC50 (NCI-H460): 83.3 µM; TGI (NCI-H460): 16.5 µM; GI50 (BT-549): 3.18 µM; LC50 (BT-549): 94.7 µM; TGI (BT-549): 14.1 µM; GI50 (DU-145): 9.75 µM; LC50 (concentration killing 50% of cells) (DU-145): > 100 µM; TGI (DU-145): 64.6 µM; GI50 (NCI/ADR-RES): 3.04 µM; LC50 (NCI/ADR-RES): > 100 µM; TGI (NCI/ADR-RES): 22.2 µM; GI50 (OVCAR-8): 3.79 µM; TGI (OVCAR-8): > 100 µM; CC50 (OVCAR-8; [1]): > 100 µM; GI50 (OVCAR-5): 17.2 µM; LC50 (OVCAR-5): > 100 µM; TGI (OVCAR-5): > 100 µM; GI50 (OVCAR-3): 8.24 µM; LC50 (50% lethal concentration) (OVCAR-3): > 100 µM; TGI (OVCAR-3): > 100 µM; GI50 (IGROV-1): 4.59 µM; LC50 (concentration killing 50% of cells) (IGROV-1): > 100 µM; TGI (IGROV-1): > 100 µM; GI50 (UACC-62): 3.15 µM; LC50 (UACC-62): > 100 µM; TGI (UACC-62): > 100 µM; GI50 (SK-MEL-5): 2 µM; LC50 (concentration killing 50% of cells) (SK-MEL-5): 23.8 µM; TGI (SK-MEL-5): 5.72 µM; GI50 (MDA-MB-435): 2.66 µM; LC50 (concentration killing 50% of cells) (MDA-MB-435): > 100 µM; TGI (MDA-MB-435): 9.54 µM; GI50 (LOX IMVI): 3.32 µM; LC50 (50% lethal concentration) (LOX IMVI): > 100 µM; TGI (LOX IMVI): 19.3 µM; GI50 (Malme-3M): 2.48 µM; TGI (Malme-3M): 13.6 µM; CC50 (Malme-3M; [1]): > 100 µM; GI50 (SNB-19): 7.49 µM; LC50 (SNB-19): > 100 µM; TGI (SNB-19): > 100 µM; GI50 (UO-31): 2.89 µM; TGI (UO-31): > 100 µM; CC50 (UO-31; [1]): > 100 µM; GI50 (ACHN): 4.06 µM; LC50 (concentration killing 50% of cells) (ACHN): > 100 µM; TGI (ACHN): 62.9 µM; GI50 (A498): 17.4 µM; LC50 (A498): > 100 µM; TGI (A498): > 100 µM
